From a melting point compilation (Tetko et al.) come the findings set out here.

One may read the melting point as the temperature of the solid-liquid transition.

As to `COC(=O)c1ccccc1S(=O)(=O)NC(=O)N(C)c1nc(C)nc(OC)n1`, the melting point was determined as 142 °C. The molecule `O=C(O)c1ccccc1C1c2ccc(O)cc2Oc2cc(O)ccc21` yielded a melting point of 126 °C. As for `CC(C)(C)OC(=O)NCc1nnc(S)n1C1CC1`, the figure is 193 to 194 °C; as for `CC1CC(=O)OC(=O)C1`, 40 to 45 °C. Turning to `CC(=O)NCC(=O)O`, the melting point lay within 207 to 209 °C.

Molecule `CCOc1cc2c(cc1OC)CCNC2CC(C)C` (stereo unspecified) displayed a melting point of 151 °C. As for `CCC(CO)(CO)[N+](=O)[O-]`, the figure is 57.5 °C; as for `O=[N+]([O-])c1ccc(N/N=C2\Cc3c2ccc2ccccc32)c([N+](=O)[O-])c1`, 273 to 276 °C; as for `C=Cc1c(SC)sc(C(=O)O)c1C`, 172 to 174 °C. For `Clc1ccc2c(c1)Oc1ccc(Cl)cc1O2`, the melting point is 202 °C. `O=S(=O)(Cl)Cc1ccccc1Cl` gave a melting point of 60 to 62 °C. `CC(C)(C)OC(=O)NC(Cc1ccccc1)C(=O)NN` (stereo unspecified) yielded a melting point of 131 to 136 °C. As for `O=C(OC(C(=O)c1ccc2c3c(cccc13)CC2)c1ccccc1)c1ccccc1` (stereo unspecified), the figure is 156 °C; as for `Brc1ccc(Sc2ccc(Br)cc2)cc1`, 115 °C; as for `CCCCCCCCC(=O)OCCCCC`, -27 °C. As for `O=Cc1cc(Cl)cc(Cl)c1Cl`, the figure is 72 to 76 °C; as for `NNC(=O)CSc1ccnc2cc(Cl)ccc12`, 213 to 216 °C; as for `Cc1onc(-c2ccc(F)cc2)c1C(=O)O`, 197 to 200 °C. In turn, `CC1(c2ccccc2)CC(C(=NOCC(O)CN2CCN(c3ccccc3)CC2)c2cc3ccccc3o2)C1` (stereo unspecified) showed a melting point of 96 to 97 °C. On to `Nc1cccc(S(=O)(=O)c2cccc(N)c2)c1`, for which the melting point was determined as 172 °C. `N#C/C(=N\Nc1ccccc1[N+](=O)[O-])c1nc2ccccc2[nH]1` returned a melting point of 270 °C. `CCCCCCCCCCCCCCCCCC(=O)OCCO` displayed a melting point of 60.5 °C. `O=C(O)C=CC(=O)Nc1ccc(F)cc1F` returned a melting point of 191 °C.

As for `O=[N+]([O-])c1ccc(O)c([N+](=O)[O-])c1`, the melting point was 116 °C. As for `Nc1nnc(-c2ccccc2)c(Nc2ccc(Cl)cc2)n1`, the figure is 297 °C. As for `Cc1cccc(NC(N)=O)c1`, the figure is 138 to 143 °C. As for `Nc1ccc(CCc2ccc(N)cc2)cc1`, the figure is 137 °C; as for `CCC(=O)c1ccc(F)c(C(F)(F)F)c1`, 32 °C; as for `COC(=O)c1cc(Cl)c(NC(C)=O)cc1OC`, 155 °C. `NNC(=O)c1ccccc1OC(F)(F)F` gave a melting point of 103 to 105 °C. The molecule `CC1C(=O)CCCC1=O` gave a melting point of 206 °C. Regarding `OCCN(CCO)CCc1ccc(CSc2ccccc2)cc1`, the melting point was 80 °C. As for `Cc1cc2occ(C#N)c(=O)c2cc1C`, the melting point lay in the range of 206 to 210 °C. In the case of `N#CCNCC#N` it was 77 °C; in that of `N#Cc1cc(F)ccc1Br`, 90 °C.

`CCCC(C)Cl` (stereo unspecified) showed a melting point of -80 °C. As for `CCOC(=O)c1cn2nc(Cl)ccc2n1`, the figure is 156 to 157 °C; as for `CC12CCCCC1CCC1C2CCC2(C)C(OCc3ccccc3)CCC12` (stereo unspecified), 160 °C; as for `C[N+](C)(C)CC(=O)[O-]`, 301 °C.

As for `C=CCNC(=O)NCC=C`, the melting point was found to be 91.5 °C. In turn, `O=C(Oc1ccc2ccccc2c1)c1ccccc1O` showed a melting point of 95.5 °C.

In the case of `Nc1ccc(C(O)(C(F)(F)F)C(F)(F)F)cc1`, the melting point came out at 150 °C. In turn, `O=C(Cc1ccccc1)OCc1ccccc1[N+](=O)[O-]` displayed a melting point of 54 °C. `Nc1ccccc1C=Cc1cc(/C=C/c2ccccc2)c(N)cc1N` registered a melting point of 146 °C. In the case of `CCOc1ccc(NC(=O)C(C(F)(F)F)C(F)(F)F)cc1` it was 181 °C; in that of `O=C(O)c1ccc2nccn2c1`, 250 °C; in that of `CCOC(C)(C)C`, -94 °C.

Turning to `Cc1ccc(CCCC(=O)O)cc1`, the melting point turned out to be 57 °C. With `C=CC(=O)OCCCCCC`, the melting point was -45 °C.

`CCNc1cc(=O)oc2ccccc12` displayed a melting point of 150 °C. As for `Cc1cc(C(=O)O)cc(C)c1F`, the figure is 166 °C.

In the case of `O=C(CCl)N1CCc2c([nH]c3ccccc23)C1C(F)(F)F` (stereo unspecified), the melting point was in the range of 232 to 235 °C. In the case of `O=C(c1cccc2ccccc12)C(O)c1ccccc1` (stereo unspecified) it was 105 to 106 °C; in that of `C#CCOc1cc(-n2nc(C(C)(C)C)oc2=O)c(Cl)cc1Cl`, 131 °C; in that of `O=C1CC(C(=O)OCc2ccccc2)N1` (stereo unspecified), 137 to 138 °C.

With `CC(=O)OCC1=C(C(=O)O)N2C(=O)C(N)C2SC1` (stereo unspecified), the melting point was 300 °C. As for `CCCC(C(N)=O)n1nnc2ccccc21` (stereo unspecified), the figure is 125 °C; as for `O=C(CCl)c1ccc(Cl)cc1Cl`, 54 °C; as for `CC(C)(C)c1cc2c(O)c(c1)Cc1cc(C(C)(C)C)cc(c1O)Cc1cc(C(C)(C)C)cc(c1O)Cc1cc(C(C)(C)C)cc(c1O)Cc1cc(C(C)(C)C)cc(c1O)C2`, 310 to 312 °C. As for `Cc1ccc(O)cn1`, the figure is 169 °C; as for `COC(=O)c1ccc(OCc2ccccc2)cc1`, 98 °C.

`CC(=O)CC(C)(C)O` gave a melting point of -42.8 °C. In the case of `CCCCN(CCCC)C(=O)COC(=O)c1ccccc1` it was 25 °C.

Take `O=C(O)CN1CSC(=S)N(Cc2ccccc2)C1`: the melting point is 152 °C. As for `O=C(O)C1Cc2cc(O)ccc2CN1` (racemic), the figure is 256 to 260 °C; as for `C=CCNC(=S)NNC(=O)C(=O)c1c[nH]c2ccccc12`, 229 °C. `CCC(c1ccccc1)c1c(O)oc2ccccc2c1=O` (stereo unspecified) registered a melting point of 180 °C. As for `CC(C)(C)N(NC(=O)c1ccccc1)C(=O)c1cccc(C(F)(F)F)c1`, the figure is 204 °C; as for `NC(=S)CSc1ccccc1`, 88 to 91 °C; as for `O=C(C1=NN(c2ccccc2)C2C(=O)N(c3ccc(Br)cc3)C(=O)C12)c1ccc(Cl)cc1` (stereo unspecified), 255 °C. For the molecule `NC(=O)[C@@H]1CCCC[C@@H]1O` (relative stereo), the melting point lay in the range of 115 to 119 °C.

With `NC(=S)c1csc2ccccc12`, the melting point was 121 to 124 °C. In the case of `O=S(=O)(Cl)c1c(Cl)cccc1Cl` it was 53 °C; in that of `Cc1cc(C)c(N=C=S)cc1C`, 22 to 24 °C. In the case of `S=C1NC2=C(CCCC2=Cc2ccccc2)C(c2ccccc2)N1` (stereo unspecified) it was 190 to 192 °C; in that of `Cc1cc(S(=O)(=O)c2ccccc2)ccc1NS(=O)(=O)C(F)(F)F`, 143 °C.

In turn, `Cn1c(S(=O)(=O)O)nc2ccccc21` returned a melting point of 341 °C. As for `CC(C#N)c1ccccc1[N+](=O)[O-]` (stereo unspecified), the figure is 51 °C; as for `COc1cc2c(cc1OC)C(=O)NCC2`, 175 °C; as for `COC(=O)c1ccc(OC)c(S(=O)(=O)Cl)c1`, 126 to 128 °C. In the case of `CCCCCC(C)CO` (stereo unspecified) it was -112 °C; in that of `NC(=S)c1cccc2c1OCCO2`, 106 to 109 °C. As for `CCNc1nsc2ccccc12`, the figure is 78 °C; as for `S=C=Nc1c(Cl)cccc1Cl`, 43 °C; as for `C=Cc1ccccc1`, -31 °C. Regarding `FC(F)(Br)C(F)(F)Br`, the melting point is -110 °C. In the case of `c1ccc(N2CSc3nnc(-c4cccnc4)n3C2)cc1` it was 214 °C; in that of `O=C(OCc1ccccc1)c1ccccc1O`, 19 °C; in that of `O=C(O)Cc1cc(O)c(CC(=O)O)cc1O`, 234 to 236 °C.

In turn, `CC(CO)c1c(O)c(O)c2c(c1O)C(=O)C(O)=C1C(C)(C)CCCC12C` (stereo unspecified) returned a melting point of 237 °C. As for `O=S(=O)(O)c1ccc(Cl)cc1`, the figure is 102 °C; as for `COc1cccc2c1ccn2C`, 89 to 91 °C; as for `O=[N+]([O-])c1c(Cl)cccc1-c1c[nH]cc1Cl`, 124 °C. As for `O=C(O)c1cnc2ccccc2c1`, the figure is 277 to 283 °C; as for `OC1OC(C2CCCCC2)Cc2ccccc21` (stereo unspecified), 87.2 to 90 °C. On to `O=C(Cc1cc(CC(=O)Nc2ccccc2)c([N+](=O)[O-])cc1[N+](=O)[O-])Nc1ccccc1`, for which the melting point came to 267 °C.

The molecule `CC(=O)c1ccc2[nH]c(=O)oc2c1` showed a melting point of 236 °C. In the case of `C[Si](C)(c1ccccc1)[Si](C)(C)c1ccccc1` it was 33 to 38 °C; in that of `Cc1c(S(=O)(=O)c2ccc(Cl)cc2)csc1C(=O)O`, 252 to 256 °C. As for `COc1ccc(C(=O)Oc2ccc(C(=O)/C=C/c3ccc4c(c3)OCO4)cc2)cc1`, the figure is 169 °C. On to `Nc1ccccc1C(=O)Nc1ccccc1`, for which the melting point turned out to be 132 °C.

For `CN1C2CCC1CC(OC(=O)C(O)c1ccccc1)C2` (stereo unspecified), the melting point was 99.5 °C. For `Clc1ccc(Cl)c(CBr)c1`, the melting point was 41 °C. In the case of `Cc1nc(-c2ccc(Br)s2)cs1` it was 78 to 79 °C; in that of `C=CCN1CCCC1CNC(=O)c1cc(S(=O)(=O)NC)c(N)cc1OC` (stereo unspecified), 169 °C; in that of `O=C(Cl)c1cccc(-c2ncccn2)c1`, 136 to 137 °C.

For the molecule `CC(C)[C@H](NC(=O)OCc1ccccc1)C(=O)O`, the melting point worked out at 60 °C. In the case of `O=C(NO)OCc1ccccc1` it was 68 °C.

For `O=C(O)C=CCCl`, the melting point is 83 °C. In the case of `CC(=O)Nc1ccc(C=NNC(N)=S)cc1` it was 225 to 230 °C. In the case of `O=C1NC(=O)C2(CCCCC2)N1` it was 218 to 220 °C.
